# Paper PMC10652874, “Investigation into the mechanism of action of the antimicrobial peptide epilancin 15X” (Frontiers in Microbiology, 2023)
# Tested on: S. carnosus TM300
# Assay: RNAseq differential gene expression
# Format: cell-based, Staphylococcus carnosus
# Protocol: For the RNAseq experiments, epilancin was added at sub-lethal concentration (0.5x MIC) to S. carnosus TM300 once the cultures reached an OD600 of 0.6. RNA was extracted 40 min after the treatment, using a FastRNA Pro Blue kit (MP Biomedicals). Both treated and parallel untreated samples were collected at the same time. Sequencing was performed at the Carver Biotechnology Center (UIUC). For RNAseq analysis, gene counts were read in to R (v3.1.1; [Team, 2014]), and 14/2441 genes were removed because they had fewer than 32 total counts across the six samples. edgeR’s (v3.6.7) TMM normalization ([Robinson and Oshlack, 2010]) plus negative binomial generalized log-linear model ([McCarthy et al., 2012]) was used to test for differential expression between treated and untreated groups, while accounting for pairing of U and T replicates from three different cultures. p-values were adjusted using the false discovery rate method ([Benjamini and Hochberg, 1995]).
substance,measurement,setting,value
Epilancin 15X,fold_change,"gene ileS, isoleucyl-tRNA synthetase",0.47
same,fold_change,"gene kbl, 2-amino-3-ketobutyrate coenzyme A ligase",0.46
same,fold_change,"gene mnhA, monovalent cation/H+ antiporter subunit A",0.48
same,fold_change,"gene murC, UDP-N-acetylmuramate--L-alanine ligase",0.4
same,fold_change,"gene ndk, nucleoside diphosphate kinase",0.44
same,fold_change,"gene nirC, NirC protein",0.43
same,fold_change,"gene nos, nitric oxide synthase oxygenase",0.43
same,fold_change,"gene opuAC, putative glycine betaine ABC transporter substrate-binding protein",0.43
same,fold_change,"gene pmi, mannose-6-phosphate isomerase",0.42
same,fold_change,"gene potA, putative spermidine/putrescine import ATP-binding protein PotA",0.41
same,fold_change,"gene prmC (SCA_1620), hypothetical protein",0.48
same,fold_change,"gene ptsG (glcA), glucose-specific phosphotransferase system enzyme II, factor IIA",0.42
same,fold_change,"gene purA, adenylosuccinate synthetase",0.45
same,fold_change,"gene purB, adenylosuccinate lyase",0.41
same,fold_change,"gene rex (SCA_1553), redox-sensing transcriptional repressor Rex",0.42
same,fold_change,"gene rimM, 16S rRNA-processing protein RimM",0.44
same,fold_change,"gene rplE, 50S ribosomal protein L5",0.47
same,fold_change,"gene rplF, 50S ribosomal protein L6",0.48
same,fold_change,"gene rplJ, 50S ribosomal protein L10",0.48
same,fold_change,"gene rplL, 50S ribosomal protein L7/L12",0.48
same,fold_change,"gene rplR, 50S ribosomal protein L18",0.47
same,fold_change,"gene rplX, 50S ribosomal protein L24",0.48
same,fold_change,"gene rpmD, 50S ribosomal protein L30",0.48
same,fold_change,"gene rpmG, 50S ribosomal protein L33",0.42
same,fold_change,"gene rpsE, 30S ribosomal protein S5",0.48
same,fold_change,"gene rpsF, 30S ribosomal protein S6",0.42
same,fold_change,"gene rpsH, 30S ribosomal protein S8",0.48
same,fold_change,"gene rpsR, 30S ribosomal protein S18",0.47
same,fold_change,"gene rpsT, 30S ribosomal protein S20",0.44
same,fold_change,"gene sdhB, succinate dehydrogenase iron-sulfur subunit",0.41
same,fold_change,"gene trmD, tRNA (guanine-N(1)-)-methyltransferase",0.44
same,fold_change,"gene trpD, anthranilate phosphoribosyltransferase",0.4
same,fold_change,"gene trpS, tryptophanyl-tRNA synthetase",0.47
same,fold_change,"gene tyrA, prephenate dehydrogenase",0.41
same,fold_change dps,general stress protein 20U,6.95
same,fold_change Sca_1447,glycosyltransferase,3.57
same,fold_change Sca_0051,glyoxalase/bleomycin resistance protein/dioxygenase superfamily protein,6.15
same,fold_change Sca_0808,glyoxalase/bleomycin resistance protein/dioxygenase superfamily protein (fragment 2),2.14
same,fold_change gloA,glyoxylase family protein,3.75
same,fold_change grpE,heat shock protein GrpE,2.94
same,fold_change vraS,histidine kinase sensor,7.95
same,fold_change Sca_0031,hypothetical protein,3.09
same,fold_change Sca_0046,hypothetical protein,2.17
same,fold_change Sca_0052,hypothetical protein,5.71
same,fold_change Sca_0054,hypothetical protein,2.52
same,fold_change Sca_0067,hypothetical protein,4.42
same,fold_change Sca_0071,hypothetical protein,7.07
same,fold_change Sca_0072,hypothetical protein,7.15
same,fold_change Sca_0096,hypothetical protein,3.48
same,fold_change Sca_0097,hypothetical protein,2.35
same,fold_change Sca_0098,hypothetical protein,2.28
same,fold_change Sca_0100,hypothetical protein,2.47
same,fold_change Sca_0114,hypothetical protein,3.35
same,fold_change Sca_0117,hypothetical protein,2.03
same,fold_change Sca_0128,hypothetical protein,0.49
same,fold_change Sca_0133,hypothetical protein,2.43
same,fold_change Sca_0179,hypothetical protein,5.25
same,fold_change Sca_0238,hypothetical protein,5.63
same,fold_change Sca_0248,hypothetical protein,3.2
same,fold_change Sca_0264,hypothetical protein,2.54
same,fold_change Sca_0265,hypothetical protein,3.04
same,fold_change Sca_0279,hypothetical protein,2.02
same,fold_change Sca_0299,hypothetical protein,4.24
same,fold_change Sca_0324,hypothetical protein,2.17
same,fold_change Sca_0328,hypothetical protein,6.61
same,fold_change Sca_0329,hypothetical protein,5.2
same,fold_change Sca_0356,hypothetical protein,4.74
same,fold_change Sca_0422,hypothetical protein,2.12
same,fold_change Sca_0454,hypothetical protein,3.4
same,fold_change Sca_0459,hypothetical protein,3.3
same,fold_change Sca_0468,hypothetical protein,2.78
same,fold_change Sca_0471,hypothetical protein,4
same,fold_change Sca_0472,hypothetical protein,3.68
same,fold_change Sca_0473,hypothetical protein,4.68
same,fold_change Sca_0474,hypothetical protein,4.61
same,fold_change Sca_0477,hypothetical protein,4.52
same,fold_change Sca_0478,hypothetical protein,3.97
same,fold_change Sca_0481,hypothetical protein,4.58
same,fold_change Sca_0482,hypothetical protein,3.77
same,fold_change Sca_0483,hypothetical protein,3.93
same,fold_change Sca_0484,hypothetical protein,3.96
same,fold_change Sca_0485,hypothetical protein,3.21
same,fold_change Sca_0487,hypothetical protein,4.14
same,fold_change Sca_0488,hypothetical protein,2.02
same,fold_change Sca_0489,hypothetical protein,2.6
same,fold_change Sca_0490,hypothetical protein,2.76
same,fold_change Sca_0491,hypothetical protein,2.13
same,fold_change Sca_0525,hypothetical protein,2.45
same,fold_change Sca_0529,hypothetical protein,2.16
same,fold_change Sca_0643,hypothetical protein,3.47
same,fold_change Sca_0647,hypothetical protein,2.16
same,fold_change Sca_0648,hypothetical protein,2.05
same,fold_change Sca_0666,hypothetical protein,5.78
same,fold_change Sca_0700,hypothetical protein,2.96
same,fold_change Sca_0703,hypothetical protein,5.58
same,fold_change Sca_0752,hypothetical protein,2.97
same,fold_change Sca_0778,hypothetical protein,3.33
same,fold_change Sca_0834,hypothetical protein,3.67
same,fold_change Sca_0844,hypothetical protein,5.22
same,fold_change Sca_0862,hypothetical protein,2.79
same,fold_change Sca_0868,hypothetical protein,2.53
same,fold_change Sca_0877,hypothetical protein,2.02
same,fold_change Sca_0934,hypothetical protein,3.62
same,fold_change Sca_0935,hypothetical protein,2.43
same,fold_change Sca_0959,hypothetical protein,2.05
same,fold_change Sca_0965,hypothetical protein,2.37
same,fold_change Sca_0993,hypothetical protein,2.38
same,fold_change Sca_1021,hypothetical protein,2.3
same,fold_change Sca_1081,hypothetical protein,2.09
same,fold_change Sca_1154,hypothetical protein,2.08
same,fold_change Sca_1155,hypothetical protein,2.03
same,fold_change Sca_1209,hypothetical protein,3.24
same,fold_change Sca_1210,hypothetical protein,2.68
same,fold_change Sca_1212,hypothetical protein,2.1
same,fold_change Sca_1236,hypothetical protein,5.11
same,fold_change Sca_1237,hypothetical protein,5.24
same,fold_change Sca_1261,hypothetical protein,4.39
same,fold_change Sca_1262,hypothetical protein,4.13
same,fold_change Sca_1263,hypothetical protein,3.92
same,fold_change Sca_1265,hypothetical protein,6.01
same,fold_change Sca_1328,hypothetical protein,2.71
same,fold_change Sca_1396,hypothetical protein,2.4
same,fold_change Sca_1420,hypothetical protein,2.04
same,fold_change Sca_1461,hypothetical protein,6.62
same,fold_change Sca_1500,hypothetical protein,2.03
